One data set deals with P. falciparum strain W2. Kind of data set: labeled hypoxanthine susceptibility assay, P. falciparum W2. Particulars: Plasmodium falciparum. It counts as cell-based, Plasmodium falciparum. As for the experimental part: (§1) The in vitro activities of quinoline methanols against P. falciparum strains W2, D6, TM91C235, and TM90C2A were evaluated using the traditional labeled hypoxanthine assay of Desjardins et al as modified by Milhous et al. These four P. falciparum strains were selected since they have various levels of resistance to conventional anti-malarials.

The next data set relates to P. falciparum strain D6. In words: labeled hypoxanthine susceptibility assay, P. falciparum D6. It counts as cell-based, Plasmodium falciparum. The following applies: for IC90: Plasmodium falciparum. As to the method:
as §1

Data set [1] relates to P. falciparum strain TM90C2A. In words: labeled hypoxanthine susceptibility assay, P. falciparum TM90C2A. The data set is classed as cell-based, Plasmodium falciparum. The following applies: for IC90: Plasmodium falciparum, TM90C2A; for CSI (C2A/W2): ratio of IC90 C2A to IC90 W2. As to the method: as §1
Another data set in a line: in vitro. The following applies: mouse. As for the experimental part: (§2) General cytotoxicity was assessed by first determining LC50 's against a rodent macrophage (RAW) cell line using the 3-(4,5-dimethylthiazole-2-yl)-2,5-diphenyltetrazolium bromide (MTT) assay as described in one of our earlier studies. This screen was conducted to identify compounds that may require de-selection due to generalized toxicity. […] In vitro neurocytotoxicity was assessed by determining LC50s against primary mouse neurons using the MTT assay as described previously. Inhibition of the A2A and A1 receptors was determined at 200 nM in duplicate by Caliper Biosciences (Hanover, Maryland).

For a further data set, the target named is T1, A2A receptor (Homo sapiens, UniProt P29274).
T1 construct: Caliper Biosciences (contract screen)
In words: inhibition of the A2A receptor at 200 nM. It counts as binding. The following applies: 200 nM, duplicate; read-out: % A2A inhibition at 200 nM. As for the experimental part: as §2

In a further data set the target is T2, A1 receptor (Homo sapiens, UniProt P30542).
T2 construct: Caliper Biosciences (contract screen)
T2 sequence (P30542 1-326): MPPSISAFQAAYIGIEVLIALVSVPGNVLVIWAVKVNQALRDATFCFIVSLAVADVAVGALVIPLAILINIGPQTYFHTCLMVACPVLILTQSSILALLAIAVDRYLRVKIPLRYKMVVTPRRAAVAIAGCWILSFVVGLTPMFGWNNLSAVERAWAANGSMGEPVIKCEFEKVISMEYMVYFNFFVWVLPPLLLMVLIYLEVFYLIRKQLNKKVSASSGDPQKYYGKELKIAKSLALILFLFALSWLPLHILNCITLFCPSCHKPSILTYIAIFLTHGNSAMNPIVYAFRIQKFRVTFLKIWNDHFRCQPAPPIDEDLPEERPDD
Kind of data set: inhibition of the A1 receptor at 200 nM. It counts as binding. The following applies: duplicate. As to the method:
as §2

The test system of data set [2] is MDR1-transfected MDCK cell monolayers. In words: in vitro. The following applies: dog, MDCK-MDR1, 2 h, 5 μM, pH 7.4. As for the experimental part:
For this reason, the apparent permeability of selected compounds across MDR1-transfected MDCK cell monolayers was determined. This assay is an in vitro surrogate of the blood-brain barrier.
Permeability was determined by Absorption Systems (Exton, PA). MDR1-MDCK cell monolayers were grown to confluence on collagen-coated, microporous, polycarbonate membranes in 12-well Costar Transwell plates. […] The permeability assay buffer was Hanks Balanced Salt Solution containing 10 mM HEPES and 15 mM glucose at a pH of 7.4. A known p-glycoprotein inhibitor cyclosporin A (CSA) was also added to the assay buffer at 10 μM. Bovine serum albumin (1%) was added to the receiver well. The dosing solution concentrations of the test compounds were 5.0 μM in the assay buffer. All cell monolayers were first pre-incubated for 30 minutes with assay buffer. After 30 minutes, the buffer was removed, replaced with fresh buffer, and time was recorded as 0. […] Cell monolayers were dosed on the apical side (A-to-B) or basolateral side (B-to-A) and incubated at 37°C with 5% CO2 in a humidified incubator. After 2 hours, aliquots were taken from the receiver chambers. Samples were taken from the donor chamber at 0 and 2 hours. Each determination was performed in duplicate. The lucifer yellow flux was also measured for each monolayer to ensure no damage was inflicted to the cell monolayers during the flux period. All samples were assayed by LC/MS/MS using electrospray ionization.
Apparent permeability in the apical (A-B direction), PappA-B, and percent recovery are reported. Apparent permeability is a measure of the rate of transport across the cell monolayer. Percent recovery refers to the amount of compound recoverable at the end of the assay. Low recovery may indicate non-specific binding to assay plates, instability or accumulation in the cell pellet.
The apparent permeability, Papp, and percent recovery were calculated as follows:
Papp = (dCr/dt) × Vr/(A × C0) (1)
Percent Recovery = 100 × ((Vr × Cr^final) + (Vd × Cd^final))/(Vd × […]) (2)

The nature of data set [3]: metabolic stability in mouse liver microsomes. The data set is classed as in vitro ADME. The following applies: for half-life at 1 μM: pH 7.4, mouse liver microsomes, read-out: Half-life in mouse micro. As for the experimental part: (§3) Interesting compounds were also submitted for drug-drug interaction and metabolic stability assays. Low IC50s against specific cytochrome P450 isoforms may indicate the potential for a harmful drug interaction to occur in vivo with substrates of that isoform. A lack of metabolic stability in vitro may indicate potential metabolic instability in vivo, and, therefore, a shorter half-life. Drug interaction potential was evaluated in vitro using BD Gentest (Franklin Lakes, NJ) CYP450 inhibition kits as recommended by the manufacturer. Metabolic stability assessments were conducted using in vitro liver microsomes. […] The reaction is started with the addition of 1 U/mL glucose-6-phosphate dehydrogenase G6PD. The mixture is incubated on a shaking platform at 37°C, and aliquots are taken and quenched with the addition of an equal volume of cold acetonitrile at 0, 10, 20, 30, and 60 min. Samples are centrifuged at 3700 rpm for […] at 20°C to remove debris. Sample quantification is carried out by LC/MS, and metabolic half-life is calculated by log plots of the total ion chromatograph area remaining.
In general terms: Microsomes from liver hold many membrane-bound enzymes, among them those of drug oxidation.

Another data set concerns the target T3, CYP450 2C19 (Homo sapiens, UniProt P33261).
T3 construct: purchased BD Gentest (Franklin Lakes, NJ)
Kind of data set: CYP450 inhibition kit (drug-drug interaction), 2C19. It counts as biochemical. As for the experimental part: as §3, with “Low” for “Interesting compounds were also submitted for drug-drug interaction and metabolic stability assays. Low”

Where [4] appears, read: D6, read-out: IC90 Pf D6, P. falciparum D6, mefloquine: historical mean +/- SD (n).
The mark [5] stands for this setting: D6, read-out: PF D6 IC90, P. falciparum D6.
[6] abbreviates: read-out: Pf C2A IC90 nM values calculated using MW in Column C.

≈ marks a conversion by molar mass, not a printed value. Where two headings read alike, the source gives them in different places.

In general, IC90 refers to the point of the concentration-response curve where the effect stands at 90%. One may read the inhibition as the share of the control response that was lost under treatment. By half-life is commonly meant the time in which the quantity being followed falls by half. Broadly, the IC50 is the midpoint of a concentration-inhibition curve.

T3 sequence (P33261 whole entry): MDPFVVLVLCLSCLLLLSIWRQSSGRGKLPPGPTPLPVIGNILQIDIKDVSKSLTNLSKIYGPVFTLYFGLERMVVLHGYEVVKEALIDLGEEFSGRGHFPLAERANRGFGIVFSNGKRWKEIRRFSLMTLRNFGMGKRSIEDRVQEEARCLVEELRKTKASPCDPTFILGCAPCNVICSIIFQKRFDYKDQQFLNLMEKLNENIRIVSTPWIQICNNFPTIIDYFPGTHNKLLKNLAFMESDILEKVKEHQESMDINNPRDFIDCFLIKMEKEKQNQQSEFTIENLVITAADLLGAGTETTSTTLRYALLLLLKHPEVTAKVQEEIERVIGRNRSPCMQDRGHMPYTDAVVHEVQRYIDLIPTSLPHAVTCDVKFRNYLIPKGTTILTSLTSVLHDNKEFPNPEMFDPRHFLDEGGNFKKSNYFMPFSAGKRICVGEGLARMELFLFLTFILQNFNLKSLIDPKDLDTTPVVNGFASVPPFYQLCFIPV
T1 sequence (P29274 whole entry): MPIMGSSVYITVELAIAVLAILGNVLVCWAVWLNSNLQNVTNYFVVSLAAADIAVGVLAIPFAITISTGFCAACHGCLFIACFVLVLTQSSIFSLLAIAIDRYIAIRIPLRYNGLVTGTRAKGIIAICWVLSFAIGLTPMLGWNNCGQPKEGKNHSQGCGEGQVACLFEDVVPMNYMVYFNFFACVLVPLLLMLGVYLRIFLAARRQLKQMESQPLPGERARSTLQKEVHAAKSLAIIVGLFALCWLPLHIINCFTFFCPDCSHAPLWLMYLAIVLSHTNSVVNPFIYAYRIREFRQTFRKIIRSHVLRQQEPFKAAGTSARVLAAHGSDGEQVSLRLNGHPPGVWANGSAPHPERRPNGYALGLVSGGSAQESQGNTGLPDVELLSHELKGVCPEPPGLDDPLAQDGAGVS

Consider `OC(CNCCNCc1ccccc1)c1cc(C(F)(F)F)nc2c(C(F)(F)F)cccc12` (stereo not drawn) [WR308396], for which the IC90 with P. falciparum strain W2 (W2, read-out: IC90 Pf W2) worked out at 6.2 ng/mL (≈ 0.0136 µM); in the data set on P. falciparum strain D6 (setting [4]), 0.03 µg/mL (≈ 0.0656 µM); in the data set on P. falciparum strain D6 (setting [5]), 0.0293 µg/mL (≈ 0.0639 µM); in data set [1] (read-out: IC90 Pf C2A) it was 0.048 µg/mL; in [1] (read-out: IC90 PfC2A) it was 105 nM; in data set [1] (read-out: PF C2A IC90) it was 0.048 µg/mL. Further, the IC90 in data set [1] (setting [6]) is 105 nM. In addition, in the data set on P. falciparum strain D6 (P. falciparum D6, mefloquine: historical mean +/- SD (n)), the “IC90 Pf D6” value stood at 29 ng/mL (≈ 0.0634 µM). The “CSI (C2A/W2)” value in data set [1] turned out to be 7.7. In the data set “in vitro”, this compound returned a CC50 of 52 µM. Besides, the figures for the inhibition at 0.2 µM at A2A receptor and against A1 receptor were 0% and 2.9%, respectively. Moreover, in data set [2], the “PappA-B MDCK-MDR1” value is on record as 8.4 10^-6 cm/s. Also, the “HL in Microsomes” value in data set [3] (Figure 3, species of microsomes not given) is recorded as > 60 min. Also, the half-life at 1 μM in [3] was > 60 min. Further, at CYP450 2C19, 5.8 µM corresponded to half-maximal inhibition (IC50).

Turning to `CNCC(O)c1cc(C(F)(F)F)nc2c(C(F)(F)F)cccc12` (stereo not drawn) [WR308245], the IC90 with P. falciparum strain W2 (W2, read-out: IC90 Pf W2) came to 17 ng/mL (≈ 0.0503 µM); with P. falciparum strain W2 (W2, read-out: PF W2 IC90) it was 16.8 ng/mL (≈ 0.0495 µM); with P. falciparum strain D6 (setting [4]) it was 0.045 µg/mL (≈ 0.133 µM); with P. falciparum strain D6 (setting [5]), 0.0452 µg/mL (≈ 0.134 µM); in data set [1] (read-out: IC90 Pf C2A) it was 0.08 µg/mL; in [1] (read-out: IC90 PfC2A), 236 nM. Moreover, the IC90 in [1] (read-out: PF C2A IC90) was 0.0798 µg/mL; in [1] (setting [6]) it was 236 nM. Also, the “CSI (C2A/W2)” value in [1] was found to be 4.8. Also, the CC50 in the data set “in vitro” is > 120 µM. Besides, the inhibition at 0.2 µM on A2A receptor and against A1 receptor was 0% each time. Moreover, in data set [2], the “% recovery (MDCK-MDR1 permeability assay)” value (from here on “% recovery”) is 59%. The “PappA-B MDCK-MDR1” value in data set [2] is 24 10^-6 cm/s. Besides, the half-life at 1 μM in data set [3] was > 60 min. The compound further showed an IC50 against CYP450 2C19 of 33 µM.

Turning to `CSCCCNCC(O)c1cc(C(F)(F)F)nc2c(C(F)(F)F)cccc12` (stereo not drawn) [WR308278], the IC90 in the data set on P. falciparum strain W2 (W2, read-out: IC90 Pf W2) amounted to 9.7 ng/mL (≈ 0.0235 µM); with P. falciparum strain W2 (W2, read-out: PF W2 IC90), 9.69 ng/mL (≈ 0.0235 µM); in the data set on P. falciparum strain D6 (setting [4]) it was 0.036 µg/mL (≈ 0.0873 µM); with P. falciparum strain D6 (setting [5]) it was 0.0363 µg/mL (≈ 0.0881 µM); in data set [1] (read-out: IC90 Pf C2A) it was 0.054 µg/mL; in [1] (read-out: IC90 PfC2A), 132 nM. Also, the IC90 in data set [1] (read-out: PF C2A IC90) was 0.0544 µg/mL; in data set [1] (setting [6]), 132 nM. Also, in [1], the “CSI (C2A/W2)” value came to 5.6. The CC50 in “in vitro” is > 120 µM. The inhibition at 0.2 µM at A2A receptor stood at 1%; on A1 receptor, 9.4%. Further, in data set [2], the “% recovery” value was 54%. Moreover, the “PappA-B MDCK-MDR1” value in data set [2] is 38 10^-6 cm/s. In addition, the half-life at 1 μM in data set [3] came to 10 min. In addition, the midpoint of inhibition against CYP450 2C19, the IC50, lay at 3.6 µM.

As to `CC(C)NCC(O)c1cc(C(F)(F)F)nc2c(C(F)(F)F)cccc12` (stereo not drawn) [WR308257], the IC90 in the data set with P. falciparum strain W2 (W2, read-out: IC90 Pf W2) was 4.7 ng/mL (≈ 0.0128 µM); in the data set with P. falciparum strain W2 (W2, read-out: PF W2 IC90), 4.65 ng/mL (≈ 0.0127 µM); with P. falciparum strain D6 (setting [4]) it was 0.023 µg/mL (≈ 0.0628 µM); in the data set on P. falciparum strain D6 (setting [5]), 0.0232 µg/mL (≈ 0.0634 µM); in data set [1] (read-out: IC90 Pf C2A), 0.039 µg/mL; in [1] (read-out: IC90 PfC2A), 107 nM. The IC90 in data set [1] (read-out: PF C2A IC90) was 0.0392 µg/mL; in data set [1] (setting [6]), 107 nM. Besides, the “CSI (C2A/W2)” value in [1] worked out at 8.4. Moreover, in “in vitro”, the CC50 is > 120 µM. Moreover, the inhibition at 0.2 µM at A2A receptor was 17%; at A1 receptor, 79%. The “% recovery” value in [2] is 69%. Besides, the half-life at 1 μM in [3] is > 60 min. The compound further yielded an IC50 against CYP450 2C19 of 26 µM.

The values above are taken from PMC2833169, “Anti-malarial activity of a non-piperidine library of next-generation quinoline methanols” (Malaria Journal, 2010).
